Like-named read-outs stand apart in the source and are kept apart here.
Columns and labels:
Type in all cases: cell-based
Conditions in all cases: Hepatitis C virus
[1] = tested on: GT1a replicon encoding NS5A mutation L31V; experiment: Transient replication assay, GT1a replicon with NS5A mutation L31V
[2] = tested on: GT1a replicon encoding NS5A mutation Y93C; experiment: Transient replication assay, GT1a replicon with NS5A mutation Y93C
[3] = tested on: GT1a replicon encoding NS5A mutation M28T; experiment: Transient replication assay, GT1a replicon with NS5A mutation M28T
HCV GT 2a-J6 replicon = experiment: HCV replicon assay, GT2a chimeric replicon expressing NS5A from GT2a strain J6
Protocol: The activity of compounds was determined against HCV replicons representing genotypes (GT) 1a, 1b, 2a, and 3a. To generate stable Huh-7.5-based cell lines, HCV replicons were engineered to express the Renilla luciferase reporter (hRluc) fused to the neomycin phosphotransferase (Neo) gene. GT2a and GT3a HCV replicons were based on the JFH-1 subgenomic replicon (Kato et al. 2003 Gastroenterology, 125:1808-1817), in which the NS5A gene was replaced with that of strains J6 and S52 (GT2a and G3a, respectively). The activity of compounds against GT1a replicons encoding NS5A mutations (M28T, Q30R, L31M, Y93C, and Y93H) was also determined in a transient replication assay. The parental GT1a and GT2a replicons (pH/SG-Neo(L+I) and pSG-Neo-JFH1, respectively) were licensed from Apath LLC (Saint Louis, Mo.). The parental GT 1b replicon (pFKi389lucubineo_3_3′_ET) was licensed from ReBLikon GmbH (Germany). HCV replicons were constructed by standard molecular biology techniques described below. All replicon constructs were verified by restriction enzyme digestion and DNA sequencing.
The plasmid pSG-hRlucNeo-JFH1 was generated from pSG-Neo-JFH1 (Kato et al. 2003, Gastroentrology 125:1808-1817). A fragment containing the JFH-1 5′ NTR—hRluc-Neo gene and two unique restriction sites (AgeI and PmeI) was synthesized (Integrated DNA Technologies, Coralville, Iowa). The resulting synthetic plasmid was digested with AgeI and PmeI and the excised fragment (5′NTR-hRluc-Neo) was ligated into pSG-Neo-JFH1 digested with the same enzymes to generate pSG-hRlucNeo-JFH1. To allow expression of heterologous NS5A sequences, an NS5A shuttle vector was generated from pSG-Neo-JFH1, in which the entire coding sequence of NS5A plus the first eight codons of NS5B were replaced with an AfeI restriction site. This was done by Infusion cloning (Clontech, Mountain View, Calif.) from two PCR products that were generated using pSG-Neo-JFH1 as a template and the following primer pairs:
Underlined sequences denote regions of overlap necessary for Infusion cloning. Purified PCR products were cloned directly into an NsiI/SnaBI digested pSG-Neo-JFH1 following the manufacturer's instructions to generate pSG-Neo-JFH1-5Ashuttle. The 2023 base pair AgeI/PmeI fragment from pSG-hRlucNeo-JFH1 was then ligated into pSG-Neo-JFH1-5Ashuttle to generate pSG-hRlucNeo-JFH1-5Ashuttle. To generate the 2a-2a-(J6) and 2a-3a-(S52) NS5A chimeric replicons, the full length NS5A sequences from GT2a strain J6 (accession AF177036) and GT3a strain S52 (accession GU814263), with the addition of the first eight codons of JFH-1 NS5B (5′-TCCATGTCATACTCCTGGACCGGG-3′), were synthesized by GeneArt (Life Technologies, Carlsbad Calif.). J6 and S52 NS5A sequences were then PCR amplified from the synthetic clones using the appropriate forward primer:
Underlined sequences denote regions of overlap with pSG-hRlucNeo-JFH1-5Ashuttle necessary for Infusion cloning. Purified PCR products were directly cloned into AfeI-digested shuttle vector by Infusion cloning following the manufacturer's instructions.
Stable HCV replicon cell lines were grown in complete media (Dulbecco's modified Eagle medium [DMEM], 2 mM L-glutamine, 0.1 mM essential amino acids, 1 mM sodium pyruvate, 10% heat inactivated fetal bovine serum) with the addition 500 μg/ml […] (G418). Huh7-lunet cells were maintained in the same medium without the addition of G418. Cells were routinely passaged at a dilution of 1:4 two times a week. The assay medium for both luciferase reporter HCV replicon and cytotoxicity assays used phenol red-free DMEM and lacked G418. For each stable replicon assay, a sixteen point half-log dilution series of compound was stamped (0.5 ul compound per well) into three replica 384-well plates, to which cells were added directly (4000 cells/well). […]

[4] = tested on: GT1a replicon encoding NS5A mutation Y93H; experiment: Transient replication assay, GT1a replicon with NS5A mutation Y93H

SMILES	EC50 ([1]; read-out: EC50 1a L31V)	EC50 ([2]; read-out: EC50 1a Y93C)	EC50 ([3]; read-out: EC50 1a M28T)	EC50 (HCV GT 2a-J6 replicon; 72 h, read-out: EC50 2a J6)	EC50 ([4]; read-out: EC50 1a Y93H)	EC50 ([1]; read-out: EC50 (nM) 1a L31V)	EC50 ([2]; read-out: EC50 (nM) 1a Y93C)	EC50 ([3]; read-out: EC50 (nM) 1a M28T)	EC50 (HCV GT 2a-J6 replicon; read-out: EC50 (nM) 2a-J6)	EC50 ([4]; read-out: EC50 (nM) 1a Y93H)
COC(=O)N[C@H](C(=O)N1C[C@]2(CCCOC2)C[C@H]1c1nc2ccc3cc(-c4ccc5c(ccc6nc([C@@H]7C[C@@H]8COC[C@@H]8N7C(=O)[C@@H](NC(=O)OC)C(C)C)[nH]c65)c4)ccc3c2[nH]1)C(C)C [Compound 36]	0.2 nM	0.06 nM	0.08 nM	0.3 nM	8 nM	–	–	–	–	–
COC(=O)N[C@H](C(=O)N1CC2(CC2)C[C@H]1c1ncc(-c2ccc(-c3ccc4c(ccc5nc([C@@H]6C[C@@]7(CCCOC7)CN6C(=O)[C@@H](NC(=O)OC)C(C)C)[nH]c54)c3)cc2)[nH]1)C(C)C [Compound 8]	0.2 nM	0.1 nM	0.06 nM	8 nM	4 nM	–	–	–	–	–
COC(=O)N[C@H](C(=O)N1C[C@@]2(CCOC2)C[C@H]1c1ncc(-c2ccc(-c3ccc4c(ccc5nc([C@@H]6C[C@]7(CCOC7)CN6C(=O)[C@@H](NC(=O)OC)C(C)C)[nH]c54)c3)cc2)[nH]1)C(C)C [Compound 49]	5 nM	0.4 nM	1 nM	23 nM	12 nM	–	–	–	–	–
COC(=O)N[C@H](C(=O)N1CCC[C@H]1c1ncc(-c2ccc(-c3ccc4c(ccc5nc([C@@H]6C[C@]7(CCOC7)CN6C(=O)[C@@H](NC(=O)OC)C(C)C)[nH]c54)c3)cc2)[nH]1)C(C)C [Compound 51]	0.4 nM	0.07 nM	0.1 nM	4 nM	4 nM	–	–	–	–	–
COC(=O)N[C@H](C(=O)N1[C@H](c2nc3ccc4cc(-c5ccc(-c6cnc([C@@H]7C[C@@]8(CCCOC8)CN7C(=O)[C@H](NC(=O)OC)C7C[C@@H](C)O[C@H](C)C7)[nH]6)cc5)ccc4c3[nH]2)C[C@@H]2CCCC[C@@H]21)C(C)C (stereo in doubt) [Compound 39]	4 nM	4 nM	0.4 nM	41 nM	213 nM	–	–	–	–	–
COC(=O)N[C@H](C(=O)N1C[C@]2(CCCOC2)C[C@H]1c1ncc(-c2ccc(-c3ccc4c(c3)OCc3nc([C@@H]5CCCN5C(=O)[C@@H](NC(=O)OC)C(C)C)[nH]c3-4)cc2)[nH]1)C(C)C [Compound 30]	1 nM	0.5 nM	0.6 nM	1 nM	13 nM	–	–	–	–	–
COC(=O)N[C@H](C(=O)N1C[C@]2(CCCOC2)C[C@H]1c1ncc(-c2ccc(-c3ccc4c(c3)OCc3nc([C@@H]5C[C@@H]6CCCC[C@@H]6N5C(=O)[C@@H](NC(=O)OC)C(C)C)[nH]c3-4)cc2)[nH]1)C(C)C [Compound 42]	0.2 nM	0.6 nM	0.2 nM	2 nM	16 nM	–	–	–	–	–
COC(=O)N[C@H](C(=O)N1C[C@]2(CCCOC2)C[C@H]1c1ncc(-c2ccc(-c3ccc4c(ccc5nc([C@@H]6C[C@@H]7COC[C@@H]7N6C(=O)[C@@H](NC(=O)OC)C(C)C)[nH]c54)c3)cc2)[nH]1)C(C)C [Compound 35]	0.5 nM	0.4 nM	0.2 nM	2 nM	26 nM	–	–	–	–	–
COC(=O)N[C@H](C(=O)N1C[C@]2(CCCOC2)C[C@H]1c1ncc(-c2ccc3c(ccc4cc(-c5cnc([C@@H]6C[C@@H]7CCCC[C@@H]7N6C(=O)[C@@H](NC(=O)OC)C(C)C)[nH]5)ccc43)c2)[nH]1)C(C)C [Compound 17]	0.3 nM	0.3 nM	0.008 nM	22 nM	5 nM	–	–	–	–	–
COC(=O)N[C@H](C(=O)N1CCC[C@H]1c1nc2c([nH]1)-c1ccc(-c3ccc4c(ccc5nc([C@@H]6C[C@@]7(CCCOC7)CN6C(=O)[C@@H](NC(=O)OC)C(C)C)[nH]c54)c3)cc1OC2)C(C)C [Compound 25]	0.6 nM	0.09 nM	0.5 nM	0.8 nM	7 nM	–	–	–	–	–
COC(=O)N[C@H](C(=O)N1C[C@]2(CCCOC2)C[C@H]1c1nc2ccc3cc(-c4ccc5c(ccc6nc([C@@H]7C[C@@H]8CCC[C@@H]8N7C(=O)[C@@H](NC(=O)OC)C(C)C)[nH]c65)c4)ccc3c2[nH]1)C(C)C [Compound 9]	0.07 nM	0.03 nM	0.03 nM	0.04 nM	2 nM	–	–	–	–	–
COC(=O)N[C@H](C(=O)N1C[C@]2(CCOC2)C[C@H]1c1ncc(-c2ccc(-c3ccc4c(ccc5nc([C@@H]6CCCN6C(=O)[C@@H](NC(=O)OC)C(C)C)[nH]c54)c3)cc2)[nH]1)C(C)C [Compound 26]	11 nM	0.8 nM	3 nM	22 nM	42 nM	–	–	–	–	–
COC(=O)N[C@H](C(=O)N1C[C@]2(CCCOC2)C[C@H]1c1nc2ccc3cc(-c4ccc(-c5cnc([C@@H]6C[C@@H]7COC[C@@H]7N6C(=O)[C@@H](NC(=O)OC)C(C)C)[nH]5)cc4)ccc3c2[nH]1)C(C)C [Compound 34]	0.08 nM	0.09 nM	0.03 nM	0.7 nM	4 nM	–	–	–	–	–
COC(=O)N[C@H](C(=O)N1CCC[C@H]1c1ncc(-c2ccc(-c3ccc4c(c3)OCc3nc([C@@H]5C[C@@]6(CCCOC6)CN5C(=O)[C@@H](NC(=O)OC)C(C)C)[nH]c3-4)cc2)[nH]1)C(C)C [Compound 33]	0.3 nM	0.1 nM	0.3 nM	1 nM	4 nM	–	–	–	–	–
COC(=O)N[C@H](C(=O)N1C[C@]2(CCCOC2)C[C@H]1c1ncc(-c2ccc(-c3ccc4c(ccc5nc([C@@H]6CCCN6C(=O)[C@@H](NC(=O)OC)C(C)C)[nH]c54)c3)cc2)[nH]1)C(C)C [drawing 233]	–	–	–	–	–	1 nM	0.3 nM	0.2 nM	0.6 nM	8 nM
COC(=O)N[C@H](C(=O)N1C[C@]2(CCCOC2)C[C@H]1c1ncc(-c2ccc(-c3ccc(-c4cnc([C@@H]5C[C@@H]6CCCC[C@@H]6N5C(=O)[C@@H](NC(=O)OC)C(C)C)[nH]4)cc3)cc2)[nH]1)C(C)C [Compound 32]	0.4 nM	0.5 nM	0.05 nM	2 nM	7 nM	–	–	–	–	–
COC(=O)N[C@H](C(=O)N1C[C@]2(CCCOC2)C[C@H]1c1ncc(-c2ccc(-c3ccc4c(ccc5nc([C@@H]6C[C@@H]7CCCC[C@@H]7N6C(=O)[C@@H](NC(=O)OC)C(C)C)[nH]c54)c3)cc2)[nH]1)C(C)C [Compound 29]	0.1 nM	0.1 nM	0.02 nM	2 nM	7 nM	–	–	–	–	–
COC(=O)N[C@H](C(=O)N1C[C@]2(CCCOC2)C[C@H]1c1nc2ccc3cc(-c4ccc5c(ccc6nc([C@@H]7C[C@@H]8C[C@@H]8N7C(=O)[C@@H](NC(=O)OC)C(C)C)[nH]c65)c4)ccc3c2[nH]1)C(C)C [Compound 21]	1 nM	0.09 nM	0.2 nM	2 nM	4 nM	–	–	–	–	–

Source: patent US10407445B2, “Hepatitis C virus inhibitors” (ENANTA PHARMACEUTICALS, INC., priority 2013, dated 2019)
